{"source": "PubChem BioAssay AID1259407", "about": "(Chemical Carcinogenesis Research Information System (CCRIS), 2018)", "system": "CCRIS mutagenicity, Ames/micronucleus/aberration tests", "experiment": "CCRIS mutagenicity studies", "key": {"[1]": {"details": "Test System: AMES SALMONELLA TYPHIMURIUM, Strain/Indicator: TA98, Metabolic Activation: NONE, Method: PREINCUBATION"}, "[2]": {"details": "Test System: AMES SALMONELLA TYPHIMURIUM, Strain/Indicator: TA100, Metabolic Activation: NONE, Method: PREINCUBATION"}, "[3]": {"details": "Test System: AMES SALMONELLA TYPHIMURIUM, Strain/Indicator: TA1535, Metabolic Activation: NONE, Method: PREINCUBATION"}}, "note": "The source made the active and inactive calls. The rule behind the calls is not given here.", "data": [{"smiles": "CCOC(=O)CCl", "values": [{"measurement": "mutagenic call", "setting": "Test System: AMES SALMONELLA TYPHIMURIUM, Strain/Indicator: TA102, Metabolic Activation: NONE, Method: STANDARD PLATE", "result": "inactive; negative"}, {"measurement": "mutagenic call", "setting": "Test System: AMES SALMONELLA TYPHIMURIUM, Strain/Indicator: TA2638, Metabolic Activation: NONE, Method: STANDARD PLATE", "result": "inactive; negative"}, {"measurement": "mutagenic call", "setting": "Test System: E. COLI, Strain/Indicator: WP2 (PKM101), Metabolic Activation: NONE, Method: STANDARD PLATE", "result": "inactive; negative"}, {"measurement": "mutagenic call", "setting": "Test System: E. COLI, Strain/Indicator: WP2 UVRA (PKM101), Metabolic Activation: NONE, Method: STANDARD PLATE", "result": "inactive; negative"}]}, {"smiles": "CC(=O)N=C1C=CC(=O)C=C1", "values": [{"measurement": "mutagenic call", "setting": "[1]", "result": "inactive; negative"}, {"measurement": "mutagenic call", "setting": "Test System: AMES SALMONELLA TYPHIMURIUM, Strain/Indicator: TA102, Metabolic Activation: NONE, Method: PREINCUBATION", "result": "inactive; negative"}, {"measurement": "mutagenic call", "setting": "Test System: UDS MOUSE HEPATOCYTES, Strain/Indicator: THY INCORP (NON-S-PHASE), Metabolic Activation: NONE, Method: LIQUID SCINTILLATION COUNTING", "result": "inactive; negative"}]}, {"smiles": "CCN(CC(O)c1ccc([N+]#N)c([O-])c1)N=O", "note": "(stereo unspecified)", "values": [{"measurement": "mutagenic call", "setting": "[1]", "result": "active; positive"}, {"measurement": "mutagenic call", "setting": "Test System: AMES SALMONELLA TYPHIMURIUM, Strain/Indicator: TA98, Metabolic Activation: RAT LIVER S-9, PCB, Method: PREINCUBATION", "result": "active; positive"}, {"measurement": "mutagenic call", "setting": "[2]", "result": "active; positive"}, {"measurement": "mutagenic call", "setting": "Test System: AMES SALMONELLA TYPHIMURIUM, Strain/Indicator: TA100, Metabolic Activation: RAT LIVER S-9, PCB, Method: PREINCUBATION", "result": "active; positive"}]}, {"smiles": "C=Cc1ccccc1Cl", "values": [{"measurement": "mutagenic call", "setting": "Test System: AMES SALMONELLA TYPHIMURIUM, Strain/Indicator: TA97, Metabolic Activation: HAMSTER, LIVER, S-9, AROCLOR 1254 (10 OR 30%), Method: PREINCUBATION", "result": "inactive; negative"}, {"measurement": "mutagenic call", "setting": "Test System: AMES SALMONELLA TYPHIMURIUM, Strain/Indicator: TA97, Metabolic Activation: NONE, Method: PREINCUBATION", "result": "inactive; negative"}, {"measurement": "mutagenic call", "setting": "Test System: AMES SALMONELLA TYPHIMURIUM, Strain/Indicator: TA97, Metabolic Activation: RAT, LIVER, S-9, AROCLOR 1254 (10 OR 30%), Method: PREINCUBATION", "result": "inactive; negative"}, {"measurement": "mutagenic call", "setting": "Test System: AMES SALMONELLA TYPHIMURIUM, Strain/Indicator: TA98, Metabolic Activation: HAMSTER, LIVER, S-9, AROCLOR 1254 (10 OR 30%), Method: PREINCUBATION", "result": "inactive; negative"}, {"measurement": "mutagenic call", "setting": "[1]", "result": "inactive; negative"}, {"measurement": "mutagenic call", "setting": "Test System: AMES SALMONELLA TYPHIMURIUM, Strain/Indicator: TA98, Metabolic Activation: RAT, LIVER, S-9, AROCLOR 1254 (10 OR 30%), Method: PREINCUBATION", "result": "inactive; negative"}, {"measurement": "mutagenic call", "setting": "Test System: AMES SALMONELLA TYPHIMURIUM, Strain/Indicator: TA100, Metabolic Activation: HAMSTER, LIVER, S-9, AROCLOR 1254 (10 OR 30%), Method: PREINCUBATION", "result": "inactive; negative"}, {"measurement": "mutagenic call", "setting": "[2]", "result": "inactive; negative"}, {"measurement": "mutagenic call", "setting": "Test System: AMES SALMONELLA TYPHIMURIUM, Strain/Indicator: TA100, Metabolic Activation: RAT, LIVER, S-9, AROCLOR 1254 (10 OR 30%), Method: PREINCUBATION", "result": "inactive; negative"}, {"measurement": "mutagenic call", "setting": "Test System: AMES SALMONELLA TYPHIMURIUM, Strain/Indicator: TA1535, Metabolic Activation: HAMSTER, LIVER, S-9, AROCLOR 1254 (10 OR 30%), Method: PREINCUBATION", "result": "inactive; negative"}, {"measurement": "mutagenic call", "setting": "[3]", "result": "inactive; negative"}, {"measurement": "mutagenic call", "setting": "Test System: AMES SALMONELLA TYPHIMURIUM, Strain/Indicator: TA1535, Metabolic Activation: RAT, LIVER, S-9, AROCLOR 1254 (10 OR 30%), Method: PREINCUBATION", "result": "inactive; negative"}]}, {"smiles": "Nc1c(Br)cc([N+](=O)[O-])cc1[N+](=O)[O-]", "values": [{"measurement": "mutagenic call", "setting": "Test System: AMES SALMONELLA TYPHIMURIUM, Strain/Indicator: TA98, Metabolic Activation: HAMSTER, LIVER, S-9, AROCLOR 1254 (10%), Method: PREINCUBATION", "result": "active; positive"}, {"measurement": "mutagenic call", "setting": "Test System: AMES SALMONELLA TYPHIMURIUM, Strain/Indicator: TA98, Metabolic Activation: HAMSTER, LIVER, S-9, AROCLOR 1254, Method: STANDARD PLATE", "result": "active; positive"}, {"measurement": "mutagenic call", "setting": "[1]", "result": "active; positive"}, {"measurement": "mutagenic call", "setting": "Test System: AMES SALMONELLA TYPHIMURIUM, Strain/Indicator: TA98, Metabolic Activation: NONE, Method: STANDARD PLATE", "result": "active; positive"}, {"measurement": "mutagenic call", "setting": "Test System: AMES SALMONELLA TYPHIMURIUM, Strain/Indicator: TA98, Metabolic Activation: RAT, LIVER, S-9, AROCLOR 1254 (10%), Method: PREINCUBATION", "result": "active; positive"}, {"measurement": "mutagenic call", "setting": "Test System: AMES SALMONELLA TYPHIMURIUM, Strain/Indicator: TA98, Metabolic Activation: RAT, LIVER, S-9, AROCLOR 1254, Method: STANDARD PLATE", "result": "active; positive"}, {"measurement": "mutagenic call", "setting": "Test System: AMES SALMONELLA TYPHIMURIUM, Strain/Indicator: TA98, Metabolic Activation: RAT, LIVER, S-9, KANECHLOR 500, Method: PREINCUBATION", "result": "active; positive"}, {"measurement": "mutagenic call", "setting": "Test System: AMES SALMONELLA TYPHIMURIUM, Strain/Indicator: TA100, Metabolic Activation: HAMSTER, LIVER, S-9, AROCLOR 1254 (10%), Method: PREINCUBATION", "result": "active; positive"}, {"measurement": "mutagenic call", "setting": "Test System: AMES SALMONELLA TYPHIMURIUM, Strain/Indicator: TA100, Metabolic Activation: HAMSTER, LIVER, S-9, AROCLOR 1254, Method: STANDARD PLATE", "result": "active; positive"}, {"measurement": "mutagenic call", "setting": "[2]", "result": "active; positive"}, {"measurement": "mutagenic call", "setting": "Test System: AMES SALMONELLA TYPHIMURIUM, Strain/Indicator: TA100, Metabolic Activation: NONE, Method: STANDARD PLATE", "result": "active; positive"}, {"measurement": "mutagenic call", "setting": "Test System: AMES SALMONELLA TYPHIMURIUM, Strain/Indicator: TA100, Metabolic Activation: RAT, LIVER, S-9, AROCLOR 1254 (10%), Method: PREINCUBATION", "result": "active; positive"}, {"measurement": "mutagenic call", "setting": "Test System: AMES SALMONELLA TYPHIMURIUM, Strain/Indicator: TA100, Metabolic Activation: RAT, LIVER, S-9, AROCLOR 1254, Method: STANDARD PLATE", "result": "active; positive"}, {"measurement": "mutagenic call", "setting": "Test System: AMES SALMONELLA TYPHIMURIUM, Strain/Indicator: TA100, Metabolic Activation: RAT, LIVER, S-9, KANECHLOR 500, Method: PREINCUBATION", "result": "active; positive"}, {"measurement": "mutagenic call", "setting": "Test System: AMES SALMONELLA TYPHIMURIUM, Strain/Indicator: TA1535, Metabolic Activation: HAMSTER, LIVER, S-9, AROCLOR 1254 (10%), Method: PREINCUBATION", "result": "inactive; negative"}, {"measurement": "mutagenic call", "setting": "[3]", "result": "inactive; negative"}, {"measurement": "mutagenic call", "setting": "Test System: AMES SALMONELLA TYPHIMURIUM, Strain/Indicator: TA1535, Metabolic Activation: RAT, LIVER, S-9, AROCLOR 1254 (10%), Method: PREINCUBATION", "result": "inactive; negative"}, {"measurement": "mutagenic call", "setting": "Test System: AMES SALMONELLA TYPHIMURIUM, Strain/Indicator: TA1537, Metabolic Activation: HAMSTER, LIVER, S-9, AROCLOR 1254 (10%), Method: PREINCUBATION", "result": "active; positive"}, {"measurement": "mutagenic call", "setting": "Test System: AMES SALMONELLA TYPHIMURIUM, Strain/Indicator: TA1537, Metabolic Activation: HAMSTER, LIVER, S-9, AROCLOR 1254, Method: STANDARD PLATE", "result": "active; positive"}, {"measurement": "mutagenic call", "setting": "Test System: AMES SALMONELLA TYPHIMURIUM, Strain/Indicator: TA1537, Metabolic Activation: NONE, Method: PREINCUBATION", "result": "active; positive"}, {"measurement": "mutagenic call", "setting": "Test System: AMES SALMONELLA TYPHIMURIUM, Strain/Indicator: TA1537, Metabolic Activation: NONE, Method: STANDARD PLATE", "result": "active; positive"}, {"measurement": "mutagenic call", "setting": "Test System: AMES SALMONELLA TYPHIMURIUM, Strain/Indicator: TA1537, Metabolic Activation: RAT, LIVER, S-9, AROCLOR 1254 (10%), Method: PREINCUBATION", "result": "active; positive"}, {"measurement": "mutagenic call", "setting": "Test System: AMES SALMONELLA TYPHIMURIUM, Strain/Indicator: TA1537, Metabolic Activation: RAT, LIVER, S-9, AROCLOR 1254, Method: STANDARD PLATE", "result": "active; positive"}, {"measurement": "mutagenic call", "setting": "Test System: AMES SALMONELLA TYPHIMURIUM, Strain/Indicator: TA1538, Metabolic Activation: HAMSTER, LIVER, S-9, AROCLOR 1254, Method: STANDARD PLATE", "result": "active; positive"}, {"measurement": "mutagenic call", "setting": "Test System: AMES SALMONELLA TYPHIMURIUM, Strain/Indicator: TA1538, Metabolic Activation: NONE, Method: STANDARD PLATE", "result": "active; positive"}, {"measurement": "mutagenic call", "setting": "Test System: AMES SALMONELLA TYPHIMURIUM, Strain/Indicator: TA1538, Metabolic Activation: RAT, LIVER, S-9, AROCLOR 1254, Method: STANDARD PLATE", "result": "active; positive"}, {"measurement": "mutagenic call", "setting": "Test System: MOUSE LYMPHOMA, Strain/Indicator: L5178Y (TK+/TK-), Metabolic Activation: NONE, Method: SUSPENSION/PLATE", "result": "active; positive. reevaluation of results: positive"}, {"measurement": "mutagenic call", "setting": "Test System: MOUSE LYMPHOMA, Strain/Indicator: L5178Y (TK+/TK-), Metabolic Activation: RAT, LIVER, S-9, AROCLOR 1254, Method: SUSPENSION/PLATE", "result": "active; positive. reevaluation of results: positive"}]}]}
